# Data published in patent US7541457B2, “Amphiphilic trisulfonated porphyrazines for photodynamic applications in medicine” (Universite de Sherbrooke, priority 2003, dated 2009).
# Legend:
# [1] = tested on: EMT-6 murine mammary tumor cells; test: Phototoxicity (cellular photoinactivation, MTT) against EMT-6 tumor cells in vitro; type: cell-based; conditions: for LD90 (light dose for 90% cell kill): dye 1 μM, red light 660-700 nm
# [2] = tested on: Vascular Endothelial Growth Factor evoked plasma extravasation; test: PDT of VEGF-165 evoked plasma extravasation (Evans Blue) in rat retina; type: in vivo, Wistar rats
# Description: (§1) The long established Evans Blue technique was used to measure plasma extravasation. Under anesthesia with a 10 mg/kg mixture of Ketamine and Xylazine, 250 g male wistar rats were injected with 45 mg/kg Evans Blue through a canula placed in the jugular vein. Ten minutes later, the experimental procedure was started. At the end of experiments, the animals were sacrificed and their eyes were enucleated. Both eyes combined were placed into 300 μl of formamide and incubated at 70° C. for 18 hours. Following incubation the supernatant absorbance at 620 nm was read with a spectrophotometer. A standard curve was used to determine the concentration of Evans Blue, which was expressed in μg/ml.
# Rats anesthetized with a mixture of Ketamine and Zylazine (10 mg/kg) were injected with 2 μl of VEGF-165 prepared in saline, directly into the vitreous, using a Hamilton micro syringe. A period of 10 min was allotted for the plasma extravasation response to occur. After the response to VEGF-165 developed, the eyes were enucleated and subjected to spectrophotometric analysis for Evan's Blue.
# […] […] Subsequently the eyes were enucleated and tested for Evan's Blue levels.
# [3] = tested on: EMT-6 mammary tumours; test: PDT of EMT-6 mammary tumors in BALB/c mice; type: in vivo
# Description: All experiments were performed on male BALB/c mice (18-22g) (Charles River Breeding Laboratories, Montreal, Quebec, Canada) bearing two EMT-6 mammary tumours. The experiments were conducted following a protocol approved by the Canadian Council on Animal Care and the in-house ethics committee. Animals were allowed free access to water and food throughout the experiments. Before tumour implantation, hair on the hind legs and the backs of the mice was removed by shaving and chemical depilating (Nair, Whitehall, Mississauga, Canada). The two tumors were implanted on the backs of the animals by intradermal injection of 2-3×10^5 EMT-6 cells suspended in 0.05 ml Waymouth's growth medium.
# For PDT tumor response studies, mice were used 7-10 d after tumor cell inoculation (mean external tumor size 4.5-6.0 mm diameter and approximately 2.5 mm thickness). The mice were given an intravenous administration of […] of porphyrazine dye in PBS (0.2 mL/20 g) through the tail vein. […] Mice were examined daily for 20 days following PDT in order to assess tumor response (necrosis) and recurrence.
# At the highest dye dose over 50% of the animals responded with complete tumor regression as observed 3 weeks after treatment.
# [4] = tested on: EMT-6 mammary tumours; test: PDT of EMT-6 mammary tumors in BALB/c mice; type: in vivo; conditions: for Necrosis (flat and necrotic tissue within 2 days post-PDT): light 24 h later, 670 nm, 400 J/cm^2
# [5] = tested on: plasma extravasation in STZ-diabetic rat retinal vessels; test: PDT of plasma extravasation (Evans Blue) in STZ-diabetic rat retina; type: in vivo, Wistar rats; conditions: for Inhibition of plasma extravasation: 0.5 μmole/kg
# Description: as §1
# After an overnight fast, diabetes was induced with a single 65 mg/kg intraperitoneal injection of streptozotocin (STZ) in 10 mM citrate buffer, pH 4.5. Animals that served as non diabetic controls received an equivalent amount of citrate buffer alone. One week later, just prior to experimentation, blood glucose levels were measured to determine diabetic status. Only rats with blood glucose higher than 20 mM were deemed STZ-diabetic.
# Conscious rats were injected with the photosensitizing drug through the tail vein six hours prior to irradiation with red light onto the retina. […] Subsequently the eyes were enucleated and tested for Evan's Blue levels.
Substance,LD90 (light dose for 90% cell kill) ([1]; 6 h incubation),LD90 (light dose for 90% cell kill) ([1]; 24 h incubation),"Relative phototoxicity within the alkylyl series ([1]; compounds 45-49, 6 h and 24 h incubation)","Inhibition of plasma extravasation ([2]; VEGF-165 injected rats, 0.5 μmole/kg, red light 680 nm, 25 mW/cm^2, 20 J/cm^2)","Plasma extravasation after PDT ([2]; VEGF-165 treated STZ-diabetic rats, 5 hour interval between photosensitizer administration and light)","Tumor response (flattening and necrosis) within 48 h after PDT ([3]; all dye doses used, 0.5-1 μmole/kg)",Mortality ([3]; any of the dye and light doses used),Mortality ([3]; dye dose 1 μmole/kg),"Necrosis (flat and necrotic tissue within 2 days post-PDT) ([3]; dye dose 1 μmole/kg i.v., light 24 h later, 670 nm, 400 J/cm^2)",Cure (absence of a palpable tumor 3 weeks post-PDT) ([4]; dye dose 0.5 μmole/kg),Mortality ([4]; dye dose 0.5 μmole/kg),Necrosis (flat and necrotic tissue within 2 days post-PDT) ([4]; dye dose 0.5 μmole/kg i.v.),Cure (absence of a palpable tumor 3 weeks post-PDT) ([4]; dye dose 0.75 μmole/kg),Mortality ([4]; dye dose 0.75 μmole/kg),Necrosis (flat and necrotic tissue within 2 days post-PDT) ([4]; dye dose 0.75 μmole/kg i.v.),"Inhibition of plasma extravasation ([5]; light 6 h after drug, 45 J/cm2, total fluence 3 J)","Plasma extravasation after PDT ([5]; STZ-diabetic rats, interval drug to light extended from 1 hour up to 6 hours)","Relative potency as inhibitor of plasma extravasation ([5]; among the five molecules tested, light 6 h after drug)","Inhibition of plasma extravasation ([5]; diabetic rats, red light 680 nm, 25 mW/cm^2, 20 J/cm^2)"
Zinc tri-(4-sulfobenzo)-5-mono-[(1-hexynyl)naphtho]-porphyrazine [Compound 46],4.1 J · cm^−2,1.2 J · cm^−2,highest phototoxicity,completely inhibited plasma extravasation to control levels,reach control levels,All treated tumors responded,No mortality occurred,0%,100%,0%,0%,100%,20%,0%,100%,completely inhibited plasma extravasation,reduced plasma extravasation to the level of control non-diabetic rats,most potent inhibitor of plasma extravasation,completely inhibited plasma extravasation to control levels
"zinc trisulfophthalocyanine [ZnPcS3, reference compound]",5.9 J · cm^−2,2.2 J · cm^−2,,,,,,,,,,,,,,,,,
